Read-outs that look alike come from different tables or passages of the source. Marks after values point to notes of the source that are not given here.
Assays:
A. baumannii 7226/16 [1] = experiment: microbe, parasite or virus in culture; format: cell-based; details: Acinetobacter baumannii; A. baumannii 7226/16, drug-resistant clinical isolate
Protocol: (§1) Prior to the “checkerboard” synergy test the minimal inhibitory concentrations (MIC) of individual substances were determined using broth microdilution assay. Testing was performed in 60-well polystyrene Terasaki microplates with V-shaped bottom generally according to the guidelines of the European Committee for Antimicrobial Susceptibility Testing with subtle modifications designed for AMP testing (Tossi et al., [1997]; Wiegand et al., [2008]). Cultivation of bacteria was carried out in 2.1% Müller-Hinton broth at 37°C with shaking. Two-fold serial dilutions of peptides, antibiotics and other antimicrobials were made with 10 mM sodium phosphate buffer, pH 7.4, containing 0.1% of BSA. The plates were preliminary incubated with 0.1% BSA for 1 h at 37°C to reduce a non-specific binding of peptides to the plates. After that BSA was removed, and serial dilutions were added into the plate wells in triplicates followed by the same volume of the suspension of bacterial cells in logarithmic phase of growth in concentration of 1 × 10^6 CFU/ml. After the 18 h overnight incubation at 37°C, the MIC value for each compound was determined as its lowest concentration completely inhibiting the visible growth of bacteria. The final results were calculated as median values based on 3–6 independent experiments.

E. coli ESBL 521/17 [2] = experiment: microbe, parasite or virus in culture; format: cell-based; details: Escherichia coli, ESBL521/17; E. coli ESBL 521/17, drug-resistant clinical isolate; square brackets = twice the maximal tested concentration
Protocol: as §1

[3] = test system: K. pneumoniae ESBL 344/17; experiment: microbe, parasite or virus in culture; format: cell-based; details: Klebsiella pneumoniae, ESBL344/17; K. pneumoniae ESBL 344/17, drug-resistant clinical isolate
Protocol: as §1

P. aeruginosa MDR 522/17 [4] = experiment: microbe, parasite or virus in culture; format: cell-based; details: Pseudomonas aeruginosa, MDR522/17; P. aeruginosa MDR 522/17, drug-resistant clinical isolate
Protocol: as §1

S. aureus 1399/17 [5] = experiment: microbe, parasite or virus in culture; format: cell-based; details: Staphylococcus aureus; S. aureus 1399/17, drug-resistant clinical isolate; read-out: MIC
Protocol: as §1

E. coli ESBL 521/17 [6] = experiment: Checkerboard titration (FICI); format: cell-based, Escherichia coli
Protocol: (§2) The combined antimicrobial action of AMPs and other antimicrobial compounds was assessed using checkerboard titration approach under the conditions similar to that of the microdilution assay. According to checkerboard titration template, one component (A) of the combination was diluted along the rows of the plate, while the other (B) was diluted down the columns, thereby creating the variety of mixtures with different concentrations of tested compounds. 2.5 μl of corresponding solutions of the components A and B were added into each well of the plate. Into the first column and the last row the same amount of 10 mM sodium phosphate buffer, pH 7.4, containing 0.1% of BSA was introduced instead of the second component. Thus, all wells contained 5 μl of antimicrobial compounds solutions (solo or in combination). The same volume of bacterial suspension, prepared as described for microdilution assay, was added into each well. The results were recorded after the overnight incubation, visually indicating the presence or absence of the microbial growth in the corresponding wells. Based on the obtained data the isobolograms of combined action were plotted and/or Fractional Inhibitory Concentration Indices (FICI) were calculated. […] Depending on the minimal value of the FICI the combined effect of the combination was classified as antagonism (FICI > 2), independent action (1 < FICI ≤ 2), additivity (0.5 < FICI ≤ 1) or synergy (FICI ≤ 0.5), as is recommended in the literature and due to some drawbacks of the serial dilution method (Hsieh et al., [1993]; Orhan et al., [2005]; Fehri et al., [2007]). FICIs were assessed in 3–6 independent experiments and median values were used to define the nature of interaction.

A. baumannii 7226/16 [7] = experiment: Checkerboard titration (FICI); format: cell-based, Acinetobacter baumannii
Protocol: as §2

P. aeruginosa MDR 522/17 [8] = experiment: Checkerboard titration (FICI); format: cell-based, Pseudomonas aeruginosa
Protocol: as §2

[9] = test system: K. pneumoniae ESBL 344/17; experiment: Checkerboard titration (FICI); format: cell-based, Klebsiella pneumoniae
Protocol: as §2

S. aureus 1399/17 [10] = experiment: Checkerboard titration (FICI); format: cell-based, Staphylococcus aureus
Protocol: as §2

E. coli ML-35p = format: cell-based, Escherichia coli
Protocol: as §2, with “According” for “The combined antimicrobial action of AMPs and other antimicrobial compounds was assessed using checkerboard titration approach under the conditions similar to that of the microdilution assay. According”

[11] = test system: A. baumannii (clin. isol.); format: cell-based, Acinetobacter baumannii; details: AMP in combination with GEN (gentamicin)
Protocol: According to checkerboard titration template, one component (A) of the combination was diluted along the rows of the plate, while the other (B) was diluted down the columns, thereby creating the variety of mixtures with different concentrations of tested compounds. 2.5 μl of corresponding solutions of the components A and B were added into each well of the plate. Into the first column and the last row the same amount of 10 mM sodium phosphate buffer, pH 7.4, containing 0.1% of BSA was introduced instead of the second component. Thus, all wells contained 5 μl of antimicrobial compounds solutions (solo or in combination). The same volume of bacterial suspension, prepared as described for microdilution assay, was added into each well. The results were recorded after the overnight incubation, visually indicating the presence or absence of the microbial growth in the corresponding wells. Based on the obtained data the isobolograms of combined action were plotted and/or Fractional Inhibitory Concentration Indices (FICI) were calculated. […] FICIs were assessed in 3–6 independent experiments and median values were used to define the nature of interaction.

MRSA ATCC 33591 = format: cell-based, Staphylococcus aureus
Protocol: as §2, with “According” for “The combined antimicrobial action of AMPs and other antimicrobial compounds was assessed using checkerboard titration approach under the conditions similar to that of the microdilution assay. According”

M. luteus CIP A270 = format: cell-based, Micrococcus luteus
Protocol: as §2, with “According” for “The combined antimicrobial action of AMPs and other antimicrobial compounds was assessed using checkerboard titration approach under the conditions similar to that of the microdilution assay. According”

bacteria = experiment: Checkerboard titration, synergy cases with conventional antibiotics (all tested bacteria); format: cell-based; details: in vitro, human AMPs
Protocol: as §2, with “According” for “The combined antimicrobial action of AMPs and other antimicrobial compounds was assessed using checkerboard titration approach under the conditions similar to that of the microdilution assay. According”

[12] = antibiotic in combination with ChBac3.4
[13] = antibiotic in combination with PG-1
[14] = AMP in combination with GEN (gentamicin)
[15] = AMP in combination with PMB (polymyxin B)
[16] = AMP in combination with RIF (rifampicin)
[17] = AMP in combination with OX (oxacillin)

Row | Compound | MIC (A. baumannii 7226/16 [1]) | MIC (E. coli ESBL 521/17 [2]) | MIC [3] | MIC (P. aeruginosa MDR 522/17 [4]) | MIC (S. aureus 1399/17 [5]) | Minimal FICI (E. coli ESBL 521/17 [6]; [12]) | Minimal FICI (E. coli ESBL 521/17 [6]; [13]) | Minimal FICI (A. baumannii 7226/16 [7]; [12]) | Minimal FICI (A. baumannii 7226/16 [7]; [13]) | Minimal FICI (P. aeruginosa MDR 522/17 [8]; [12]) | Minimal FICI (P. aeruginosa MDR 522/17 [8]; [13]) | Minimal FICI [9, 12] | Minimal FICI [9, 13] | Minimal FICI (S. aureus 1399/17 [10]; [12]) | Minimal FICI (S. aureus 1399/17 [10]; [13]) | other results
1 | Cc1onc(-c2ccccc2)c1C(=O)N[C@@H]1C(=O)N2[C@@H]1SC(C)(C)[C@@H]2C(=O)O [Oxacillin] | > 50 µM | > 50 µM | > 50 µM | > 50 µM | > 50 µM | 1.12 | 1.12 | 1.12 | 0.75 | 1.12 | 1.12 | 1.12 | 1.12 | 0.25^* | 1.12 | 
2 | Lysozyme: egg white lysozyme, antimicrobial protein, from BioChemica |  |  |  |  |  |  |  |  |  |  |  |  |  |  |  | Minimal FICI (E. coli ML-35p; [14]): 0.53; Minimal FICI (E. coli ML-35p; [15]): 0.25; Minimal FICI (E. coli ML-35p; [16]): 0.62; Minimal FICI [11]: 0.75; Minimal FICI (MRSA ATCC 33591; [14]): 0.53; Minimal FICI (MRSA ATCC 33591; [17]): 0.53; Minimal FICI (MRSA ATCC 33591; [15]): 0.56; Minimal FICI (MRSA ATCC 33591; [16]): 0.62; Minimal FICI (M. luteus CIP A270; [14]): 0.62; Minimal FICI (M. luteus CIP A270; AMP in combination with OFL (ofloxacin)): 0.62; Minimal FICI (M. luteus CIP A270; [17]): 0.75; Minimal FICI (M. luteus CIP A270; [15]): 0.62; Minimal FICI (M. luteus CIP A270; [16]): 0.75
3 | CC[C@H](C)[C@H](NC(=O)[C@H](CCCCN)NC(=O)[C@H](CCC(=O)O)NC(=O)[C@H](CCCCN)NC(=O)[C@H](CO)NC(=O)[C@H](CCCCN)NC(=O)[C@H](CCCNC(=N)N)NC(=O)[C@H](Cc1ccccc1)NC(=O)[C@H](Cc1ccccc1)NC(=O)[C@H](CC(=O)O)NC(=O)CNC(=O)[C@H](CC(C)C)NC(=O)[C@@H](N)CC(C)C)C(=O)NCC(=O)N[C@@H](CCCCN)C(=O)N[C@@H](CCC(=O)O)C(=O)N[C@@H](Cc1ccccc1)C(=O)N[C@@H](CCCCN)C(=O)N[C@@H](CCCNC(=N)N)C(=O)N[C@H](C(=O)N[C@H](C(=O)N[C@@H](CCC(N)=O)C(=O)N[C@@H](CCCNC(=N)N)C(=O)N[C@H](C(=O)N[C@@H](CCCCN)C(=O)N[C@@H](CC(=O)O)C(=O)N[C@@H](Cc1ccccc1)C(=O)N[C@@H](CC(C)C)C(=O)N[C@@H](CCCNC(=N)N)C(=O)N[C@@H](CC(N)=O)C(=O)N[C@@H](CC(C)C)C(=O)N[C@H](C(=O)N1CCC[C@H]1C(=O)N[C@@H](CCCNC(=N)N)C(=O)N[C@H](C(=O)N[C@@H](CCC(=O)O)C(=O)N[C@@H](CO)C(=O)O)[C@@H](C)O)C(C)C)[C@@H](C)CC)C(C)C)[C@@H](C)CC [LL-37] |  |  |  |  |  |  |  |  |  |  |  |  |  |  |  | AMP concentration in synergy cases with conventional antibiotics (bacteria): around 150 nM
4 | CC1COc2c(N3CCN(C)CC3)c(F)cc3c(=O)c(C(=O)O)cn1c23 (centres unmarked) [Ofloxacin] | 25 µM | 50 µM | 0.25 µM | > 50 µM | > 50 µM | 0.75 | 0.75 | 0.5^* | 0.62 | 0.75 | 1.12 | 0.75 | 0.5 | 0.125^* | 0.56 | 

Reference: publication PMC6503114, “Application of Antimicrobial Peptides of the Innate Immune System in Combination With Conventional Antibiotics—A Novel Way to Combat Antibiotic Resistance?” (Frontiers in Cellular and Infection Microbiology, 2019)
